Assay results as given in US6444612B1, “Use of 5-amino-pyrazol-derivatives for combating micro-organisms” (Bayer Aktiengesellschaft, priority 1998, dated 2002).

Legend:
Sphaerotheca fuliginea = experiment: Sphaerotheca test (cucumber)/protective; format: in vivo; settings: protective, application rate 100 g/ha, evaluation 10 days after inoculation, 100% = no infection
Procedure: Sphaerotheca Test (Cucumber)/Protective
(§1) Solvent: 47 parts by weight of acetone
(§2) Emulsifier: 3 parts by weight of alkylaryl polyglycol ether
(§3) To produce a suitable preparation of active compound, 1 part by weight of active compound is mixed with the stated amounts of solvent and emulsifier, and the concentrate is diluted with water to the desired concentration.
(§4) To test for protective activity, young plants are sprayed with the preparation of active compound at the stated application rate. After the spray coating has dried on, the plants are inoculated with an aqueous spore suspension of Sphaerotheca fuliginea. The plants are then placed in a greenhouse at about 23° C. and a relative atmospheric humidity of about 70%.
Evalution is carried out 10 days after the inoculation. 0% means an efficacy which corresponds to that of the control, whereas an efficacy of 100% means that no infection is observed.

[1] = tested on: Erysiphe graminis f.sp. tritici; experiment: Erysiphe test (wheat)/protective; format: in vivo; settings: protective, application rate 250 g/ha, evaluation 7 days after inoculation, 100% = no infection
Procedure: Erysiphe Test (Wheat)/Protective
(§5) Solvent: 25 parts by weight of N,N-dimethylacetamide
Emulsifier: 0.6 part by weight of alkylaryl polyglycol ether
as §3
To test for protective activity, young plants are sprayed with the preparation of active compound at the stated application rate.
After the spray coating has dried on, the plants are dusted with spores of Erysiphe graminis f.sp. tritici.
The plants are placed in a greenhouse at a temperature of about 20° C. and a relative atmospheric humidity of about 80% to promote the development of mildew pustules.
(§6) Evaluation is carried out 7 days after the inoculation. 0% means an efficacy which corresponds to that of the control, whereas an efficacy of 100% means that no infection is observed.

Podosphaera leucotricha = experiment: Podosphaera test (apple)/protective; format: in vivo; settings: protective, application rate 100 g/ha, evaluation 10 days after inoculation, 100% = no infection
Procedure: Podosphaera Test (Apple)/Protective
as §1, §2, §3
as §4, with “the apple mildew pathogen Podosphaera leucotricha.” for “Sphaerotheca fuliginea.”
Evaluation is carried out 10 days after the inoculation. 0% means an efficacy which corresponds to that of the control, whereas an efficacy of 100% means that no infection is observed.

Pyrenophora teres = Pyrenophora teres test (barley)/curative; format: in vivo; settings: curative, application rate 250 g/ha, evaluation 7 days after inoculation, 100% = no infection
Procedure: Pyrenophora Teres Test (Barley)/Curative
as §5
Emulsifier: 0.6 parts by weight of alkylaryl polyglycol ether
as §3
To test for curative activity, young plants are sprayed with a conidia suspension of Pyrenophora teres. The plants remain in an incubation cabin at 20° C. and 100% relative atmospheric humidity for 48 hours. The plants are then sprayed with the preparation of active compound at the stated application rate.
The plants are placed in a greenhouse at a temperature of about 20° C. and a relative atmospheric humidity of about 80%.
as §6

Q: Which Efficacy in % (Sphaerotheca fuliginea) does the source give for `CCOC(=O)c1c(CC)nn(C)c1NC(=O)Cc1ccc(-c2ccc(OC(F)(F)F)cc2)cc1` [drawing 287] here?
A: The Efficacy in % was 100%.

Q: With `CCOC(=O)c1c(CC)nn(C)c1NC(=O)Cc1cccc(Oc2ccc(Cl)cc2)c1` [drawing 282] as the compound, how does the Efficacy in % [1] read?
A: The Efficacy in % was 100%.

Q: With `CCOC(=O)c1c(CC)nn(C)c1NC(=O)Cc1ccc(-c2ccc(OC(F)(F)F)cc2)cc1` [drawing 285] as the compound, how does the Efficacy in % (Podosphaera leucotricha) read?
A: Its Efficacy in % is 100%.

Q: For `CCOC(=O)c1c(CC)nn(C)c1NC(=O)Cc1ccc(OC)cc1` [Example 1, 4-ethoxycarbonyl-3-ethyl-5-(4-methoxyphenylacetyl)-amino-1-methylpyrazole], which melting point is on record?
A: The melting point was 112 to 113 °C.

Q: For `CCOC(=O)c1c(CC)nn(C)c1NC(=O)Cc1cccc(Oc2ccc(OC(F)(F)F)cc2)c1` [drawing 284], which Efficacy in % (Podosphaera leucotricha) is on record?
A: Its Efficacy in % is 92%.

Q: With `CCc1nn(C)c(NC(=O)Cc2ccc(-c3ccc(OC(F)(F)F)cc3)cc2)c1Cl` [drawing 286] as the compound, how does the Efficacy in % (Podosphaera leucotricha) read?
A: The Efficacy in % was 100%.

Q: With `CCc1nn(C)c(NC(=O)Cc2ccc(-c3ccc(OC(F)(F)F)cc3)cc2)c1Cl` [drawing 288] as the compound, how does the Efficacy in % (Sphaerotheca fuliginea) read?
A: Its Efficacy in % is 100%.

Q: With `CCOC(=O)c1c(CC)nn(C)c1NC(=O)Cc1cccc(Oc2ccc(Cl)cc2)c1` [drawing 283] as the compound, how does the Efficacy in % (Pyrenophora teres) read?
A: Its Efficacy in % is 100%.

Q: For `CCc1nn(C)c(NC(=O)Cc2ccc(Br)cc2)c1Cl` [Example 5, 5-(4-bromophenylacetyl)-amino-4-chloro-3-ethyl-1-methylpyrazole], which melting point is on record?
A: Its melting point is 167 to 168 °C.
